A short description of experiment [1]: Inhibition of […] in mouse 32Dbeta cells assessed as decrease in cell growth in presence of IL2 incubated for 30 mins followed by IL2 addition and measured after 2.5 days by alamar blue assay. On the technique in general: The colour change of resazurin is a common sign of viable cells or microbes.
Experiment [2] is described as follows: Inhibition of IL-15 in mouse 32Dbeta cells assessed as decrease in cell growth in presence of RLI incubated for 30 mins followed by RLI addition and measured after 2.5 days by alamar blue assay.

Molecules are shown by their SMILES. pIC50: −log10 of the molar value.

For the molecule `Cn1c(Cc2nn(C)c(=O)c3ccccc23)nnc1SCC(=O)Nc1ccc(Cl)cc1Cl`, the pIC50 (usually the IC50 on a negative log10 scale, so that one unit is a factor of ten) was 4.68 in experiment [1] and 4.65 in experiment [2].

In the case of `Cn1c(Cc2nn(C)c(=O)c3ccccc23)nnc1SCCCCCCCC(=O)Nc1ccc(Cl)cc1Cl`, the values for the pIC50 in experiment [1] and in experiment [2] were 5.41 and 5.66, respectively.

As for `CCOC(CCn1c(Cc2nn(C)c(=O)c3ccccc23)nnc1SCC(=O)Nc1ccc(Cl)cc1Cl)OCC`, the pIC50 in experiment [1] and in experiment [2] was < 4.52 throughout.

Take `Cn1nc(Cc2nnc(SCC(=O)Nc3ccc(Cl)cc3Cl)n2CCC=O)c2ccccc2c1=O`: the pIC50 in experiment [1] is 5.19; in experiment [2], 5.22.

For `Cn1nc(Cc2nnc(SCC(=O)Nc3ccc(Cl)cc3Cl)n2CCCO)c2ccccc2c1=O`, the pIC50 in experiment [1] and in experiment [2] was < 4.52 in each case.

Take `Cn1nc(Cc2nnc(SCC(=O)Nc3ccc(Cl)cc3Cl)n2CCC(=O)O)c2ccccc2c1=O`: the pIC50 in experiment [1] and in experiment [2] was < 4.52 each time.

For the molecule `Cn1c(Cc2nn(CCC3OCCO3)c(=O)c3ccccc23)nnc1SCC(=O)Nc1ccc(Cl)cc1Cl`, the pIC50 in experiment [1] and in experiment [2] was < 4.52 in each case.

Regarding `Cn1c(Cc2nn(CCC=O)c(=O)c3ccccc23)nnc1SCC(=O)Nc1ccc(Cl)cc1Cl`, the pIC50 in experiment [1] and in experiment [2] was 4.52 throughout.

As for `Cn1c(Cc2nn(CCCO)c(=O)c3ccccc23)nnc1SCC(=O)Nc1ccc(Cl)cc1Cl`, the pIC50 in experiment [1] and in experiment [2] was < 4.52 in each case.

As for `Cn1c(Cc2nn(CCC(=O)O)c(=O)c3ccccc23)nnc1SCC(=O)Nc1ccc(Cl)cc1Cl`, the pIC50 in experiment [1] and in experiment [2] was < 4.52 each time.

Consider `CN(C)CCCn1nc(Cc2nnc(SCC(=O)Nc3ccc(Cl)cc3Cl)n2C)c2ccccc2c1=O`, for which the pIC50 was 4.78 in experiment [1] and 4.73 in experiment [2].

Turning to `CCOC(CCn1c(Cc2nn(C)c(=O)c3ccccc23)nnc1SCCCCCCCC(=O)Nc1ccc(Cl)cc1Cl)OCC`, the results for the pIC50 in experiment [1] and in experiment [2] were 4.79 and 4.92, respectively.

Turning to `Cn1nc(Cc2nnc(SCCCCCCCC(=O)Nc3ccc(Cl)cc3Cl)n2CCC=O)c2ccccc2c1=O`, the pIC50 was 5.26 in experiment [1] and 5.60 in experiment [2].

In the case of `Cn1nc(Cc2nnc(SCCCCCCCC(=O)Nc3ccc(Cl)cc3Cl)[nH]2)c2ccccc2c1=O`, the pIC50 is 5.46 in experiment [1] and 5.96 in experiment [2].

`Cn1nc(Cc2nnc(SCCCCCCCC(=O)Nc3ccc(Cl)cc3Cl)n2CCCO[Si](C)(C)C(C)(C)C)c2ccccc2c1=O`: the pIC50 in experiment [1] and in experiment [2] was < 4.52 each time.

For `Cn1nc(Cc2nnc(SCCCCCCCC(=O)Nc3ccc(Cl)cc3Cl)n2CCCO)c2ccccc2c1=O`, the pIC50 in experiment [1] and in experiment [2] was < 4.52 in each case.

For `Cn1nc(Cc2nnc(SCCCCCCCC(=O)Nc3ccc(Cl)cc3Cl)n2CCC(=O)O)c2ccccc2c1=O`, the pIC50 in experiment [1] and in experiment [2] was < 4.52 each time.

For `CN(C)CCCn1c(Cc2nn(C)c(=O)c3ccccc23)nnc1SCCCCCCCC(=O)Nc1ccc(Cl)cc1Cl`, the pIC50 was 5.26 in experiment [1] and 5.43 in experiment [2].

As to `Cn1c(Cc2nn(CCCO[Si](C)(C)C(C)(C)C)c(=O)c3ccccc23)nnc1SCCCCCCCC(=O)Nc1ccc(Cl)cc1Cl`, the pIC50 in experiment [1] and in experiment [2] was < 4.52 in each case.

For `Cn1c(Cc2nn(CCC=O)c(=O)c3ccccc23)nnc1SCCCCCCCC(=O)Nc1ccc(Cl)cc1Cl`, the pIC50 in experiment [1] was 4.93; in experiment [2] it was 5.05.

As to `Cn1c(Cc2nn(CCCO)c(=O)c3ccccc23)nnc1SCCCCCCCC(=O)Nc1ccc(Cl)cc1Cl`, the pIC50 in experiment [1] and in experiment [2] was < 4.52 in each case.

Take `Cn1c(Cc2nn(CCC(=O)O)c(=O)c3ccccc23)nnc1SCCCCCCCC(=O)Nc1ccc(Cl)cc1Cl`: the pIC50 in experiment [1] and in experiment [2] was < 4.52 in each case.

With `CN(C)CCCn1nc(Cc2nnc(SCCCCCCCC(=O)Nc3ccc(Cl)cc3Cl)n2C)c2ccccc2c1=O`, the pIC50 in experiment [1] was 5.49; in experiment [2], 5.64.

Consider `Cn1c(Cc2n[nH]c(=O)c3ccccc23)nnc1SCCCCCCCC(=O)Nc1ccc(Cl)cc1Cl`, for which the pIC50 in experiment [1] and in experiment [2] was < 4.52 throughout.

On to `Cn1c(Cc2nn(C)c(=O)c3ccccc23)nnc1SCCCCCCCC(=O)Nc1ccc(C(=O)c2ccccc2)cc1`, for which the values for the pIC50 in experiment [1] and in experiment [2] were 4.69 and 5.17, respectively.

For the origin of these results see BindingDB's records for doi:10.1016/j.bmc.2021.116161 (University of Nantes, 2021).
